The source of these data is US20190145961A1, “PPAR AGONIST OR LXR AGONIST FOR USE IN THE TREATMENT OF SYSTEMIC LUPUS ERYTHEMATOSUS BY MODULATION OF LAP ACTIVITY” (Washington University, priority 2016, published 2019).

What all share (type): cell-based
In experiment [1] the test system is Bone marrow-derived macrophages (BMM) from Rubicon−/− mice. Put plainly: IL-10 production by Rubicon−/− bone marrow-derived macrophages co-cultured with apoptotic thymocytes (ELISA). As to conditions: 60 μM; Rubicon-deficient (LAP-deficient) BMM, apoptotic thymocytes 10:1, 18 hours co-culture, supernatant ELISA; versus control treatment (FIG. 1C). How it is done: Bone marrow-derived macrophages (BMM) were generated as previously described from Rubicon−/− mice and wild-type littermates. Macrophages were co-cultured with UV-irradiated apoptotic thymocytes (at a ratio of 10 apoptotic cells:1 macrophage) in the presence or absence of PPARγ agonists Rosiglitazone (ROS, 20 or 60 μM) or Tesaglitazar (TES, 6 or 20 μM). NT indicates no treatment. After 18 hours of co-culture, supernatants were collected and analyzed for IL-10 production via ELISA (FIG. 1A). […] Thus, PPAR agonists can be effective at restoring the LAP phenotype in LAP-deficient cells.
Bone marrow-derived macrophages (BMM) were generated as previously described from Rubicon−/− mice and wild-type littermates. […] NT indicates no treatment. After 18 hours of co-culture, supernatants were collected and analyzed for IL-10 production via ELISA FIG. 1C). […] Thus, LXR agonists can be effective at restoring the LAP phenotype in LAP-deficient cells.
Bone marrow-derived macrophages (BMDMs) were generated from bone marrow progenitors obtained from littermates. Freshly prepared bone marrow cells were cultured in DMEM medium supplemented with 10% heat-inactivated FCS, 2 mM L-glutamine, 10 mM HEPES buffer, 50 μg/ml penicillin, and non-essential amino acids in the presence of 20 ng/ml rmM-CSF (Peprotech) for 6 days. […]
In general terms: In an ELISA, binding on a coated surface is turned into a signal by an enzyme label.

Experiment [2] deals with Bone marrow-derived macrophages (BMM) from LysM-Cre+ ATG7f/f mice. Put plainly: IL-10 production by LysM-Cre+ ATG7f/f bone marrow-derived macrophages co-cultured with apoptotic thymocytes (ELISA). The note with it: 20 μM; LysM-Cre+ ATG7f/f (LAP-deficient) BMM, apoptotic thymocytes 10:1, 18 hours co-culture, supernatant ELISA; versus control treatment (FIG. 1B). How it is done:
Bone marrow-derived macrophages (BMM) were generated as previously described from LysM-Cre− ATG7f/f and LysM-Cre+ ATG7f/f mice. Macrophages were co-cultured with UV-irradiated apoptotic thymocytes (at a ratio of 10 apoptotic cells:1 macrophage) in the presence or absence of PPARβ/δ agonist GW0742 (GW, 20 μM). NT indicates no treatment. After 18 hours of co-culture, supernatants were collected and analyzed for IL-10 production via ELISA (FIG. 1B). […] Thus, PPAR agonists can be effective at restoring the LAP phenotype in LAP-deficient cells.
Bone marrow-derived macrophages (BMDMs) were generated from bone marrow progenitors obtained from littermates. Freshly prepared bone marrow cells were cultured in DMEM medium supplemented with 10% heat-inactivated FCS, 2 mM L-glutamine, 10 mM HEPES buffer, 50 μg/ml penicillin, and non-essential amino acids in the presence of 20 ng/ml rmM-CSF (Peprotech) for 6 days. Nonadherent cells were removed on day 6, and adherent macrophages were detached from plates and re-plated for experimental use.
Apoptosis was induced in wild-type C57Bl/6 thymocytes by UV irradiation (20 J/m^2). Thymocytes were washed twice with PBS prior to experimental use.

Experiment [3] relates to bone marrow derived-macrophages from Rbcn+/+ and Rbcn−/− mice. Put plainly: Cytokine production by Rbcn+/+ and Rbcn−/− bone marrow derived-macrophages stimulated with apoptotic thymocytes (Luminex). As to conditions: apoptotic thymocytes (1:10), 18 hours, supernatants. As to the method:
10^6 bone marrow derived-macrophages from Rbcn+/+ and Rbcn−/− mice were stimulated with apoptotic thymocytes (1:10) in vitro for 18 hours, in the presence of GW501516 at different concentrations (+6 μM, ++20 μM, +++60 μM). Collected supernatants were assayed for cytokine production using Luminex technology.
10^6 bone marrow derived-macrophages from Rbcn+/+ and Rbcn−/− mice were stimulated with apoptotic thymocytes (1:10) in vitro for 18 hours, in the presence of GW501516 at different concentrations (++20 μM, +++60 μM). Collected supernatants were assayed for cytokine production using Luminex technology.
Supernatants were collected from macrophages fed with apoptotic thymocytes for 24 hours. Cytokines released into supernatant were analyzed by Luminex technologies (Millipore). Serum was collected from animals was analyzed by Luminex technologies (Millipore).

For the compound `CC(C)CC[C@@H](O)[C@@H](C)[C@H]1CC[C@H]2[C@@H]3CC=C4C[C@@H](O)CC[C@]4(C)[C@H]3CC[C@]12C` [22(R)-hydroxycholesterol], the IL-10 production entry in experiment [1] was “increased IL-10 production”.
Take `Cc1cc(SCc2sc(-c3ccc(C(F)(F)F)c(F)c3)nc2C)ccc1OCC(=O)O` [GW0742]: the IL-10 production result in experiment [2] is “increased IL-10 production”.
Consider `Cc1cc(SCc2sc(-c3ccc(C(F)(F)F)cc3)nc2C)ccc1OCC(=O)O` [GW501516], for which, in experiment [3] (6, 20, 60 μM, Luminex (FIG. 7)), the “production of inflammatory cytokines in response to AT in vitro” value is recorded as “reduces production of inflammatory cytokines”. For the same compound, the “IL-10 production in response to apoptotic cells in LAP-deficient macrophages” value in experiment [3] (20, 60 μM, Luminex (FIG. 8)) is “restores IL-10 production”.
